Source: the NIST ThermoML archive (doi:10.1021/je060271a)

Conditions: 343.15 K, Liquid, Vibrating tube method

CCCCCCCC(=O)OCC(COC(=O)CCCCCCC)(COC(=O)CCCCCCC)COC(=O)CCCCCCC [pentaerythritol tetraoctanoate]
Conditions	mass density [kg/m3]
14038 kPa	936.2
14078 kPa	936.3
14099 kPa	936.2
14121 kPa	936.1
14146 kPa	936.2
14168 kPa	936.1
14194 kPa	936.3
14216 kPa	936.3
14238 kPa	936.2
14260 kPa	936.2
14286 kPa	936.3
14308 kPa	936.4
14330 kPa	936.4
14357 kPa	936.2
14379 kPa	936.4
14401 kPa	936.3
14428 kPa	936.3
14450 kPa	936.4
14473 kPa	936.4
14500 kPa	936.4
14523 kPa	936.4
14546 kPa	936.5
14570 kPa	936.6
14594 kPa	936.4
14621 kPa	936.6
14644 kPa	936.5
14667 kPa	936.4
14694 kPa	936.5
14718 kPa	936.6
14741 kPa	936.7
14765 kPa	936.5
14793 kPa	936.6
14817 kPa	936.6
14845 kPa	936.6
14870 kPa	936.7
14894 kPa	936.6
14918 kPa	936.8
14947 kPa	936.7
14971 kPa	936.8
14995 kPa	936.7
15024 kPa	936.7
15049 kPa	936.8
15078 kPa	936.8
15103 kPa	936.8
15127 kPa	936.8
15152 kPa	936.9
15183 kPa	936.8
15208 kPa	936.8
15233 kPa	936.8
15263 kPa	936.9
15288 kPa	937
15314 kPa	937
15344 kPa	937
15370 kPa	937
15396 kPa	937.1
15426 kPa	937.1
15452 kPa	937
15478 kPa	937
15508 kPa	937
15536 kPa	937
15563 kPa	937.1
15589 kPa	937.3
15616 kPa	937.2
15647 kPa	937.1
15673 kPa	937.2
15705 kPa	937.3
15732 kPa	937.3
15759 kPa	937.3
15791 kPa	937.2
15818 kPa	937.3
15846 kPa	937.3
15879 kPa	937.4
15908 kPa	937.4
15936 kPa	937.2
15964 kPa	937.3
15992 kPa	937.3
16026 kPa	937.4
16054 kPa	937.5
16083 kPa	937.4
16116 kPa	937.5
16144 kPa	937.5
16173 kPa	937.5
16207 kPa	937.5
16236 kPa	937.5
16265 kPa	937.7
16300 kPa	937.7
16329 kPa	937.6
16358 kPa	937.7
16387 kPa	937.6
16423 kPa	937.7
16453 kPa	937.7
16483 kPa	937.8
16518 kPa	937.7
16548 kPa	937.6
16578 kPa	937.8
16609 kPa	937.7
16645 kPa	937.8
16676 kPa	937.9
16707 kPa	937.9
16738 kPa	937.8
16775 kPa	937.8
16806 kPa	937.9
16843 kPa	938.1
16904 kPa	938
16942 kPa	938
16974 kPa	938.1
17005 kPa	938
17037 kPa	938.1
17075 kPa	938.1
17107 kPa	938.1
17146 kPa	938.2
17354 kPa	938.2
17387 kPa	938.2
17421 kPa	938.3
17460 kPa	938.4
17494 kPa	938.4
17528 kPa	938.4
17569 kPa	938.5
17604 kPa	938.5
17638 kPa	938.4
17678 kPa	938.5
17713 kPa	938.4
17748 kPa	938.5
17790 kPa	938.6
17825 kPa	938.6
17861 kPa	938.6
17904 kPa	938.7
17940 kPa	938.7
17977 kPa	938.8
18022 kPa	938.8
18054 kPa	938.8
18084 kPa	938.8
18119 kPa	938.8
18149 kPa	938.8
18179 kPa	938.8
18210 kPa	938.9
18247 kPa	938.9
18279 kPa	938.9
18312 kPa	938.9
18349 kPa	939
18372 kPa	938.9
18393 kPa	939.1
18411 kPa	939.1
18430 kPa	939
18448 kPa	939
18465 kPa	939.1
18482 kPa	939.1
18503 kPa	939.2
